Among the data in PubChem BioAssay (NCI) are GI50 and TGI values, retold here.

Molecules are shown by their SMILES.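 96-well plates; 48 h exposure; 5 concentrations. Endpoints by linear interpolation between flanking doses. Not reached: highest tested concentration assigned. GI50 = concentration required for 50% inhibition of growth. Definition used: TGI = concentration required for complete inhibition of growth.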 Where only a bound is given, the exact number is not on record here.

Holding throughout (experiment): NCI anticancer screen, dose series, 48 h
For test [1], the system named is TK-10 renal.
Test [2] has as its system U251 CNS.
In test [3] the test system is SK-MEL-2 melanoma.
Test [4] deals with CAKI-1 renal.
For test [5], the system named is NCI-H460 lung.
For test [6], the system named is A498 renal.
In test [7] the test system is EKVX NSCLC.
In test [8] the test system is SNB-75 CNS.
For test [9], the system named is SK-OV-3 ovarian.
The test system of test [10] is OVCAR-8 ovarian.

In the case of `COc1ccc2nc(N/N=C(\C)c3ccccn3)cc(C)c2c1`, the GI50 in test [1] was 0.207 µM; in [2] it was 0.261 µM; in test [3], 0.174 µM; in [4], 0.271 µM; in test [5], 0.118 µM; in test [6] it was 0.812 µM. Further, the GI50 in [7] was 0.134 µM; in [8] it was 1.82 µM; in [9] it was 0.269 µM; in [10], 0.286 µM. Besides, the TGI in test [1] turned out to be 0.991 µM; in test [2] it was 1.28 µM; in [3], 0.973 µM; in [4], 1.17 µM; in test [5] it was 1.13 µM; in [6] it was 7.02 µM. Moreover, the TGI in test [7] was determined as 0.971 µM; in [8], 7.49 µM; in test [9], 2.08 µM; in test [10] it was 2.53 µM.

As to `Cc1nc2c(nc1C)C(=O)c1cc(O)ccc1C2=O`, the TGI in test [1], in [2], in test [3], in [4], in [5] and in [6] was more than 100 µM in each case. Also, the TGI in test [7], in test [8], in test [9] and in [10] was more than 100 µM in each case.

Take `ClCc1cccc(Cn2cnc3c(Cl)ncnc32)c1`: the GI50 in [1] was 4.59 µM; in test [2] it was 1.8 µM; in test [3] it was 22.1 µM; in test [4] it was 1.53 µM; in test [5] it was 11.7 µM; in [6], 17.3 µM. The GI50 in [7] was 18.6 µM; in test [8], 2.09 µM; in test [9], 3.31 µM; in [10] it was 22.1 µM. Also, the TGI in test [1] stood at 16.1 µM; in [2], 3.48 µM; in test [3] it was 51.1 µM; in test [4] it was 2.93 µM; in test [5], 36 µM; in test [6], 31.9 µM. Besides, the TGI in [7] is 34.1 µM; in test [8] it was 4.56 µM; in [9] it was 10.6 µM; in test [10], 42 µM.

`O=[N+]([O-])C1C(c2ccccc2)C12c1ccccc1-c1ccccc12` (stereo not given): the GI50 in test [1] was 2 µM; in test [2] it was 1.03 µM; in test [3], 4.4 µM; in test [4], 1.03 µM; in [5], 0.589 µM; in [6], 0.316 µM. The GI50 is 3.22 µM in test [7], 0.612 µM in [8], 1.84 µM in test [9] and 0.645 µM in test [10]. For the same molecule, the TGI in test [1] is 16.6 µM; in test [2], 14 µM; in test [3], 31.4 µM; in test [4], more than 65.7 µM; in test [5], 10.7 µM; in test [6], 3.83 µM. The TGI is more than 100 µM in test [7], 14 µM in [8], more than 41.1 µM in test [9] and more than 24.3 µM in test [10].

Consider `O=C1CC(O)C=C1Nc1ccc(Cl)cc1` (stereo not given), for which the TGI in test [1] was more than 100 µM; in test [2] it was more than 100 µM; in [3] it was more than 100 µM; in [4], more than 100 µM; in [5], more than 100 µM; in [6] it was 32.6 µM. For the same molecule, the TGI in [7] was 60.8 µM; in test [8], more than 100 µM; in test [9], more than 100 µM; in test [10] it was more than 100 µM.

As to `Nc1nc(SCc2ccccn2)c2ncn(C3CCCC3)c2n1`, the TGI in [1], in test [2], in test [3], in test [4], in test [5] and in test [6] was more than 100 µM each time. In addition, the TGI in test [7], in [8], in [9] and in test [10] was more than 100 µM in each case.

In the case of `COc1cccc(C2CC(C)(N3CCCC3)Oc3cc4c(cc32)OCO4)c1O` (stereo not given), the TGI in test [1] is more than 93.9 µM; in [2], 77.4 µM; in test [3], 55.8 µM; in [4], more than 100 µM; in [5], more than 82.1 µM; in [6], more than 100 µM. Besides, the TGI is more than 100 µM in test [7], 53.9 µM in test [8], more than 100 µM in [9] and more than 73.2 µM in test [10].

As to `CC1OC(OCC2OC(Oc3c(-c4ccc(O)cc4)oc4cc(O)cc(O)c4c3=O)C(OC3OCC(O)(CO)C3O)C(O)C2O)C(O)C(O)C1O` (stereo not given), the TGI in test [1], in test [2], in test [3], in test [4], in [5] and in [6] was more than 100 µM in each case. In addition, the TGI in test [7], in [8], in test [9] and in [10] was more than 100 µM throughout.

With `COc1cc(/C(C#N)=C/c2ccc3c(c2OC)OCO3)cc2c1OCO2`, the GI50 in [1] was 0.982 µM; in [2], 0.11 µM; in test [3], 0.0461 µM; in [4], 0.0933 µM; in [5], 0.0452 µM; in test [6], 0.051 µM. The GI50 in test [7] is 0.652 µM; in test [8], 0.0878 µM; in test [9] it was 0.113 µM; in test [10], 0.243 µM. The TGI in test [1] is 37.2 µM; in [2], 14 µM; in test [3], 6.46 µM; in test [4], more than 100 µM; in [5], 14.2 µM; in [6], 0.785 µM. The TGI in test [7] was more than 100 µM; in test [8], 3.42 µM; in test [9] it was 14.2 µM; in [10] it was more than 60.9 µM.
